Legend:
[1] = system: CD8+ or CD4+ T-lymphocytes co-cultured with antigen-presenting cells (dendritic cells); assay: T-lymphocyte activation by ovalbumin-pulsed antigen-presenting cells, IL-2 ELISA; format: cell-based, transgenic mice; conditions: 5 ug/ml during co-culture, 24 hrs, antigen-presenting cells pulsed with 10 ug/ml ovalbumin (FIG. 2)
Protocol: FIG. 2. Plots showing the effect of a composition comprising spironolactone in the inhibition of activation of T-lymphocytes through antigen-presenting cells. Antigen-presenting cells (dendritic cells) were pulsed with ovalbumin, washed and co-cultured with CD8+ or CD4+T-lymphocytes obtained from transgenic mice whose TCR specifically recognizes an ovalbumin derived peptide charged on class I or II MHC respectively. At the same time, the culture was treated with spironolactone (-□-) eplerenone (-▾-) or not treated (control -▴-) and after 24 hours, the supernatant was withdrawn and the presence of interleukin-2 (IL-2) assayed using ELISA. *p<0.05 one-way ANOVA.
Antigen-presenting cells were pulsed with 10 ug/ml of ovalbumin (OVA) protein over 24 hrs, washed and then co-cultured with CD8+ or CD4+T-lymphocytes obtained from transgenic mice whose TCR recognizes specifically a ovalbumin derived peptide charged in MHC class I or II, respectively. […] After 24 hrs, the supernatant was withdrawn and IL-2 secretion, a cytokine secreted by activated T-lymphocytes, was assayed using ELISA assay. In this specific immunological test, it is expected the activation of said T-lymphocytes and, therefore, an increase in IL-2 secretion.

[2] = system: dendritic cells / CD4+ T-cells; conditions: cited from earlier work
[3] = system: systemic lupus erythematosus-like disease in FcγII receptor knockout mice; assay: Effect of spironolactone in systemic lupus erythematosus mice; format: in vivo; conditions: pellets supplemented with 1.8 mg daily, oral, compared to regularly fed mice (FIG. 5)
[4] = system: purified CD8+ T-lymphocytes; assay: T-lymphocyte activation by plate-bound anti-CD3ε independent of antigen-presenting cells, IL-2 ELISA; format: cell-based; conditions: 5 ug/ml, 24 hrs, plate activated with different concentrations of anti-CD3ε (FIG. 3)
Protocol: FIG. 3: Plots showing the effect of a composition comprising spironolactone or epleronone in the activation of T-lymphocytes independent from antigen-presenting dendritic cells. An ELISA plate was activated with different concentrations of anti-CD3ε overnight, and then purified CD8+ T-lymphocytes were added and treated for 24 hrs with spironolactone (-□-), eplerenone (-▾-) o not treated (control -▴-). When the time was completed the supernatant was extracted and the IL-2 levels were determined using ELISA.
The following experiment was made in order to determine if spironolactone acts directly on T-lymphocytes or the effect is on the function of antigen-presenting cells. An ELISA plate was activated with different concentrations of anti-CD3ε overnight, and then, purified CD8+T-lymphocytes were added and treated with either spironolactone or epleronone (5 ug/ml) during 24 hrs. After that period, the supernatant was withdrawn and IL-2 levels were determined using ELISA. This assay is based on that T-lymphocytes, beside expressing TCR, express a protein denominated CD3, which transduces the activating signal, generated by the interaction of TCR with the antigenic peptide bound to the MHC of the antigen-presenting cell, to the interior of the T-lymphocyte.

[5] = system: immune synapsis between T-lymphocytes and antigen-presenting cells; assay: Immune synapsis between antigen-presenting cells and T-lymphocytes, Golgi polarization by confocal fluorescence microscopy; format: cell-based; conditions: 5 ug/ml in culture medium, co-culture 2 hrs (FIG. 4B)
From the text: FIG. 4: Photographs using confocal fluorescence microscopy, showing immunological synapsis between antigen-presenting dendritic cells and T-lymphocyte. T-lymphocytes were dyed with BODIPY FL C5-Ceramide, which is directed to the Golgi apparatus, while antigen-presenting cells were dyed with CMTMR-Orange and co-cultured without spironolactone (FIG. 4A) or in the presence of spironolactone (FIG. 4B) during 2 hrs, afterwards, the cells were observed under a confocal fluorescence microscope.
It has been determined that an efficient activation of T-lymphocytes requires an stable interaction between the antigen-presenting cell and the T-lymphocyte, which is known as “immune synapsis”. A stable immune synapsis is translated in a polarization of the Golgi apparatus, an organelle in charge of protein transport, of the T-lymphocyte towards the contacting site with the antigen-presenting cell. In this way, it is possible to observe an efficient immune synapsis checking if a polarization from Golgi apparatus towards the contacting site with the antigen-presenting cell exists or not. […] Afterwards, both cell groups were contacted and the interaction between cells using a confocal fluorescence microscope was observed. […]

[6] = system: experimental autoimmune encefalomyelitis (EAE) induced with MOG 35-55 peptide; assay: Effect of a spironolactone composition in EAE mice (clinical score); format: in vivo, C57BL/6 female mice; conditions: EAE induced C57BL/6 mice, pellets supplemented with daily dose of 1.8 mg per mouse, oral, vs control group on standard pellets (FIG. 1)
[7] = system: experimental autoimmune encefalomyelitis (EAE); conditions: administration to EAE mice; for MR inhibitors also in mice that did not receive aldosterone; cited from earlier work

## COC(=O)[C@@H]1CC2=CC(=O)CC[C@]2(C)[C@@]23O[C@@H]2C[C@@]2(C)[C@@H](CC[C@@]24CCC(=O)O4)[C@H]13 [epleronone]
[1]
  activation of T-lymphocytes (IL-2 secretion, ELISA): no such inhibiting effect on the activation of T-lymphocytes is observed
[2]
  suppression of activator effects of aldosterone in the function of dendritic cells: could be suppressed

## CC(=O)S[C@@H]1CC2=CC(=O)CC[C@]2(C)[C@H]2CC[C@@]3(C)[C@@H](CC[C@@]34CCC(=O)O4)[C@H]12 [spironolactone]
[3]
  deposition of immune complexes in the kidney: did not observe a decrease in the deposition of immune complexes in the kidney
[1]
  activation of T-lymphocytes (IL-2 secretion, ELISA): inhibits the activation of T-lymphocytes
[4]
  secretion of IL-2 (ELISA): same inhibiting effect on the secretion of IL-2
[5]
  immune synapsis (polarization of the Golgi apparatus of the T-lymphocyte towards the antigen-presenting cell): immune synapsis is not produced
[6]
  clinical score associated with the disease: significantly reduces the clinical score
[2]
  suppression of activator effects of aldosterone in the function of dendritic cells: could be suppressed
[7]
  effect on disease in EAE mice: only spironolactone had protecting effects

## C[C@]12CCC(=O)C=C1CC[C@@H]1[C@@H]2[C@@H](O)C[C@]2(C=O)[C@@H](C(=O)CO)CC[C@@H]12 [aldosterone]
[2]; dendritic cells stimulated with aldosterone
  induction of T helper 17 (Th17) phenotype in CD4+ T-cells by stimulated dendritic cells: induce the T helper 17 (Th17) phenotype in CD4+ T-cells
[7]
  effect on disease in EAE mice: showed a deterioration in their disease

— patent US9849141B2, “Use of spironolactone-based composition that exhibits an inhibitory action on T-lymphocyte activation which is useful for preventing and/or treating multiple sclerosis” (PONTIFICIA UNIVERSIDAD CATOLICA DE CHILE, priority 2010, dated 2017)
